Source: ChEMBL document CHEMBL3885881, “DrugMatrix”

Organism: Rattus norvegicus
Test: DrugMatrix - Regimen: Daily Repeat
Format: toxicity, organism-based, Sprague-Dawley
Design: regimen Daily Repeat, gender Male, age 6-8 weeks
Details: in vivo, po, route oral GAVAGE, vehicle .5 % CMC; for ABSOLUTE BASOPHIL / ABSOLUTE EOSINOPHIL / ABSOLUTE LYMPHOCYTE / ABSOLUTE MONOCYTE / ABSOLUTE SEGMENTED NEUTROPHIL / BASOPHIL / EOSINOPHIL / ERYTHROCYTE COUNT / HEMATOCRIT / HEMOGLOBIN / LEUKOCYTE COUNT / LYMPHOCYTE / MEAN CORPUSCULAR HEMOGLOBIN / MEAN CORPUSCULAR HEMOGLOBIN CONCENTRATION / MEAN CORPUSCULAR VOLUME / MONOCYTE / NEUTROPHIL / NUCLEATED RED BLOOD CELLS / PLATELET COUNT: tissue Blood; for ALANINE AMINOTRANSFERASE / ALBUMIN / ALKALINE PHOSPHATASE / ASPARTATE AMINOTRANSFERASE / BLOOD UREA NITROGEN / CARBON DIOXIDE / CHLORIDE / CHOLESTEROL / CREATINE PHOSPHOKINASE / CREATININE / GLUCOSE / LACTATE DEHYDROGENASE / LIPASE / PHOSPHORUS / POTASSIUM / SODIUM / TOTAL BILIRUBIN / TOTAL PROTEIN / URIC ACID: tissue Plasma
[1] = 0 mg/kg, 72 h, dose level Control, time 3 day
[2] = 0 mg/kg, 120 h, dose level Control, time 5 day
[3] = 2000 mg/kg, 72 h, dose level High, time 3 day

O=C1Nc2ccc(Cl)cc2C(c2ccccc2Cl)=NC1O (centres undefined) [LORAZEPAM]
ABSOLUTE BASOPHIL [1]: 0 CELLS/uL
ABSOLUTE EOSINOPHIL [1]: 171.33 CELLS/uL
ABSOLUTE LYMPHOCYTE [1]: 13776.5 CELLS/uL
ABSOLUTE MONOCYTE [1]: 180.83 CELLS/uL
ABSOLUTE SEGMENTED NEUTROPHIL [1]: 1121.33 CELLS/uL
BASOPHIL [1]: 0%
EOSINOPHIL [1]: 1%
ERYTHROCYTE COUNT [1]: 5.56 x10E6/uL
HEMATOCRIT [1]: 34.75%
HEMOGLOBIN [1]: 13.68 G/DL
LEUKOCYTE COUNT [1]: 15.25 x10E3/uL
LYMPHOCYTE [1]: 90.17%
MEAN CORPUSCULAR HEMOGLOBIN [1]: 24.6 pg
MEAN CORPUSCULAR HEMOGLOBIN CONCENTRATION [1]: 39.4 G/DL
MEAN CORPUSCULAR VOLUME [1]: 62.48 fL
MONOCYTE [1]: 1.17%
NEUTROPHIL [1]: 7.67%
NUCLEATED RED BLOOD CELLS [1]: 0 /100WBC
PLATELET COUNT [1]: 1342 x10E3/uL
ALANINE AMINOTRANSFERASE [1]: 49.67 u/L
ALBUMIN [1]: 4.15 G/DL
ALKALINE PHOSPHATASE [1]: 346.83 u/L
ASPARTATE AMINOTRANSFERASE [1]: 108.17 u/L
BLOOD UREA NITROGEN [1]: 17.33 mg/dL
CARBON DIOXIDE [1]: 25 mmol/L
CHLORIDE [1]: 100.83 MEQ/L
CHOLESTEROL [1]: 66.83 mg/dL
CREATINE PHOSPHOKINASE [1]: 788 u/L
CREATININE [1]: 0.18 mg/dL
GLUCOSE [1]: 151.67 mg/dL
LACTATE DEHYDROGENASE [1]: 982.5 u/L
LIPASE [1]: 10.33 u/L
PHOSPHORUS [1]: 11.23 mg/dL
POTASSIUM [1]: 6.37 MEQ/L
SODIUM [1]: 141.02 MEQ/L
TOTAL BILIRUBIN [1]: 0.18 mg/dL
TOTAL PROTEIN [1]: 5.9 G/DL
URIC ACID [1]: 1.8 mg/dL
ABSOLUTE BASOPHIL [2]: 0 CELLS/uL
ABSOLUTE EOSINOPHIL [2]: 69 CELLS/uL
ABSOLUTE LYMPHOCYTE [2]: 13632.83 CELLS/uL
ABSOLUTE MONOCYTE [2]: 139.83 CELLS/uL
ABSOLUTE SEGMENTED NEUTROPHIL [2]: 1225 CELLS/uL
BASOPHIL [2]: 0%
EOSINOPHIL [2]: 0.33%
ERYTHROCYTE COUNT [2]: 5.52 x10E6/uL
HEMATOCRIT [2]: 33.98%
HEMOGLOBIN [2]: 13.22 G/DL
LEUKOCYTE COUNT [2]: 15.07 x10E3/uL
LYMPHOCYTE [2]: 90.83%
MEAN CORPUSCULAR HEMOGLOBIN [2]: 23.95 pg
MEAN CORPUSCULAR HEMOGLOBIN CONCENTRATION [2]: 38.9 G/DL
MEAN CORPUSCULAR VOLUME [2]: 61.53 fL
MONOCYTE [2]: 0.83%
NEUTROPHIL [2]: 8%
NUCLEATED RED BLOOD CELLS [2]: 0 /100WBC
PLATELET COUNT [2]: 1196 x10E3/uL
ALANINE AMINOTRANSFERASE [2]: 49.17 u/L
ALBUMIN [2]: 4.2 G/DL
ALKALINE PHOSPHATASE [2]: 352.33 u/L
ASPARTATE AMINOTRANSFERASE [2]: 89.67 u/L
BLOOD UREA NITROGEN [2]: 18 mg/dL
CARBON DIOXIDE [2]: 27.67 mmol/L
CHLORIDE [2]: 101 MEQ/L
CHOLESTEROL [2]: 72.83 mg/dL
CREATINE PHOSPHOKINASE [2]: 417.5 u/L
CREATININE [2]: 0.18 mg/dL
GLUCOSE [2]: 150.5 mg/dL
LACTATE DEHYDROGENASE [2]: 517.33 u/L
LIPASE [2]: 9 u/L
PHOSPHORUS [2]: 11.87 mg/dL
POTASSIUM [2]: 6.57 MEQ/L
SODIUM [2]: 143.62 MEQ/L
TOTAL BILIRUBIN [2]: 0.2 mg/dL
TOTAL PROTEIN [2]: 6.08 G/DL
URIC ACID [2]: 1.45 mg/dL
ABSOLUTE BASOPHIL [3]: 0 CELLS/uL
ABSOLUTE EOSINOPHIL [3]: 93.33 CELLS/uL
ABSOLUTE LYMPHOCYTE [3]: 11320 CELLS/uL
ABSOLUTE MONOCYTE [3]: 259.33 CELLS/uL
ABSOLUTE SEGMENTED NEUTROPHIL [3]: 1294 CELLS/uL
BASOPHIL [3]: 0%
EOSINOPHIL [3]: 0.67%
ERYTHROCYTE COUNT [3]: 6.11 x10E6/uL
HEMATOCRIT [3]: 38.6%
HEMOGLOBIN [3]: 15.07 G/DL
LEUKOCYTE COUNT [3]: 12.97 x10E3/uL
LYMPHOCYTE [3]: 87.33%
MEAN CORPUSCULAR HEMOGLOBIN [3]: 24.63 pg
MEAN CORPUSCULAR HEMOGLOBIN CONCENTRATION [3]: 39.03 G/DL
MEAN CORPUSCULAR VOLUME [3]: 63.1 fL
MONOCYTE [3]: 2%
NEUTROPHIL [3]: 10%
NUCLEATED RED BLOOD CELLS [3]: 0 /100WBC
PLATELET COUNT [3]: 1214.33 x10E3/uL
ALANINE AMINOTRANSFERASE [3]: 72.67 u/L
ALBUMIN [3]: 4.4 G/DL
ALKALINE PHOSPHATASE [3]: 338 u/L
ASPARTATE AMINOTRANSFERASE [3]: 105.33 u/L
BLOOD UREA NITROGEN [3]: 24 mg/dL
CARBON DIOXIDE [3]: 21.33 mmol/L
CHLORIDE [3]: 99.33 MEQ/L
CHOLESTEROL [3]: 119.67 mg/dL
CREATINE PHOSPHOKINASE [3]: 966.67 u/L
CREATININE [3]: 0.22 mg/dL
GLUCOSE [3]: 161.67 mg/dL
LACTATE DEHYDROGENASE [3]: 346.33 u/L
LIPASE [3]: 16.67 u/L
PHOSPHORUS [3]: 10.23 mg/dL
POTASSIUM [3]: 5.79 MEQ/L
SODIUM [3]: 140.87 MEQ/L
TOTAL BILIRUBIN [3]: 0.27 mg/dL
TOTAL PROTEIN [3]: 6.23 G/DL
URIC ACID [3]: 1.5 mg/dL
